Patent publication US20250207127A1, “PHYTOECDYSONES AND/OR 20-HYDROXYECDYSONE DERIVATIVES IN COMBINATION WITH AN ACTIVE INGREDIENT FOR RESTORING SMN EXPRESSION, FOR USE IN THE TREATMENT OF SPINAL MUSCULAR ATROPHY” (BIOPHYTIS, priority 2021, published 2025)
Strand notation (5' to 3'): a small letter for the sugar, then the base; units joined by * are phosphorothioate-linked, units joined directly phosphodiester-linked; [ ] holds rarer units or linkages, { } end groups; capitals alone tell only the bases. e = 2'-O-(2-methoxyethyl) (MOE); [5mC] = 5-methylcytosine

Assays:
Format in all cases: in vivo, mouse
[1] = tested on: SMA mice (Smn^Δ7/Δ7; huSMN2^+/−); test: Survival of severe SMA mice treated from P0
Text: (§1) The antisense oligonucleotide (ASO) of sequence SEQ ID NO: 23 (5′-TCACTTTCATAATGCTGG-3′), of reference ISIS 396443, also known under the name ISIS-SMNRx, and called in the remainder of the description ASO 10-27, complementary to 18 bases (bases 10 to 27) of intron 7 of the SMN2 gene (targeting a site in intron 7, called ISS-N1, which represses the inclusion of exon 7 of the pre-messenger RNA (pre-mRNA) of the SMN2 gene) having modified nucleotides 2′-O-methoxyethyl on the 2′ carbon atom of deoxyribose for each base, with a phosphorothioate backbone and 5-methyl cytosines and the control ASO (denoted mismatch) of sequence SEQ ID NO°: 24 (5′-TTAGTTTAATCACGCTCG-3′) (Singh et al. 2006; Williams et al. 2009), were synthesised and purified as previously described (Baker et al. 1997, Hua et al. 2008; Passini et al., 2011). The oligonucleotides are resuspended at a concentration of 8 μg/μL in 0.9% NaCl and stored at −20° C.
(§2) On the day of injection, the ASO stock solution is diluted to the concentration of 2 μg/μL in 0.9% NaCl. Methylene blue 0.04% is added to the solution as an injection control. Newborn SMA mice receive a single dose of ASO 10-27 or ASO mismatch of 8 μg on the 1st post-natal day (PO) by unilateral intra-cerebro-ventricular injection using a Hamilton syringe and a 32G needle. The injection site is located 1 mm from the sagittal suture, between bregma and lambda, landmarks visible through the skin at PO. The needle is positioned perpendicular to the injection site on the surface of the skin and inserted approximately 3 mm deep to reach the lateral ventricle.
(§3) The complementary treatment BIO101 complexed with cyclodextrin is administered daily to the mice from the first post-natal day (PO) orally at a dose of 50 mg/kg using a pipette.
(§4) A severe SMA mouse model was used on a FVB/NRj genetic background, characterised by the invalidation of exon 7 of the murine Smn gene and expressing two copies of the human SMN2 transgene (Smn^Δ7/Δ7; huSMN2−/+) (Hsieh et al., 2000). The mice resulting from these crosses having the genotype “FVB/NRj-Smn^Δ7/Δ7 huSMN2−/+2 copies” are described as “SMA” (Hsieh et al., 2000). SMA mice were treated with either BIO101 alone or a mismatch ASO or an ASO 10-27 alone, or with an ASO 10-27+BIO101 combined treatment starting from PO. Survival (FIG. 1) and weight

[2] = tested on: SMA mice (Smn^Δ7/Δ7; huSMN2^+/−); test: Grip-test (muscle fatigability) of SMA mice; settings: relative to mismatch ASO
Experimental: as §2, §3
(§5) We performed phenotypic analyses of severe SMA type 2 mice treated with BIO101 alone or a mismatch ASO or ASO 10-27 alone, or with an ASO 10-27+BIO101 combined treatment from PO. […] We, on the one hand, evaluated the movement capacities by the open-field test (FIG. 3), as well as the muscular fatigability by grip-test (FIG. 4), as previously described (Biondi et al., 2008; Branchu et al., 2013; Chali et al., 2016).
In order to assess the muscle fatigability, the grip strength of the mice's forelimbs was tested. […] The time spent hanging on is recorded. […]

[3] = tested on: SMA mice (Smn^Δ7/Δ7; huSMN2^+/−); test: Weight evolution of severe SMA mice treated from P0; settings: relative to mismatch ASO
Text: as §1, §2, §3, §4

[4] = tested on: SMA mice (Smn^Δ7/Δ7; huSMN2^+/−); test: Open-field test (movement capacities) of SMA mice; settings: at P15, 5 minutes, mean±SEM
Experimental: as §2, with “ventricle. […]” for “ventricle.”
as §5
The device used for open-field testing consists of a plastic box measuring 28×28×5 cm with a field grid divided into 16 tiles measuring 7 cm×7 cm. […] The behavioural measurements were recorded by the experimenter during these 5 minutes and the total number of crossed tiles was recorded.

[5] = SMA mice, ASO 8 μg single ICV injection at P0, BIO101 50 mg/kg oral daily from P0

Substance | average lifespan of the mouse pups [1, 5] [days] | median survival [1, 5] [days] | improvement in animal survival ([1]; median survival compared to mismatch ASO control group) [%] | improvement of resistance to fatigue (grip-test) ([2]; at P7) | improvement of resistance to fatigue (grip-test) ([2]; at P15) [%] | increase of average weight ([3]; at P7) | increase of average weight ([3]; at P8) [%] | increase of average weight ([3]; at P9) [%] | increase of average weight ([3]; at P10) [%] | total number of crossed tiles (open field) [4] [tiles]
5′-TTAGTTTAATCACGCTCG-3′ (listed as DNA, chemistry not given here) [mismatch ASO, control ASO (denoted mismatch)] | 13 | 13 | – | – | – | – | – | – | – | –
5′-TCACTTTCATAATGCTGG-3′ (antisense eT*e[5mC]*eA*e[5mC]*eT*eT*eT*e[5mC]*eA*eT*eA*eA*eT*eG*e[5mC]*eT*eG*eG) [ASO 10-27, antisense oligonucleotide complementary to bases 10 to 27 of intron 7 of the SMN2 gene] | – | 18 | 38 | not improved | 7.7 | does not increase | 9.9 | 13.9 | 16 | 70±20
